Reference: patent publication US20260191874A1, “FUSED AMINO PYRIMIDINE COMPOUNDS FOR TREATMENT OF AUTISM SPECTRUM DISORDER, OBSESSIVE COMPULSIVE DISORDER AND TICS” (Ovid Therapeutics Inc., priority 2024, published 2026)
pEC50: −log10 of the molar value.

What was measured:
[1] = set-up: species or system mice; settings: in vivo
NKCC1 = target: T1, NKCC1 (Homo sapiens, UniProt P55011); assay: Tl+ flux assay in HEK-293 cells expressing NKCC1; type: cell-based; settings: read-out: concentration at which effects on NKCC1 were seen (EC50 chart, FIG. 1G)
T1 construct: expressed in transfected cells; host or cells: HEK-293
T1 sequence (P55011 1-1212): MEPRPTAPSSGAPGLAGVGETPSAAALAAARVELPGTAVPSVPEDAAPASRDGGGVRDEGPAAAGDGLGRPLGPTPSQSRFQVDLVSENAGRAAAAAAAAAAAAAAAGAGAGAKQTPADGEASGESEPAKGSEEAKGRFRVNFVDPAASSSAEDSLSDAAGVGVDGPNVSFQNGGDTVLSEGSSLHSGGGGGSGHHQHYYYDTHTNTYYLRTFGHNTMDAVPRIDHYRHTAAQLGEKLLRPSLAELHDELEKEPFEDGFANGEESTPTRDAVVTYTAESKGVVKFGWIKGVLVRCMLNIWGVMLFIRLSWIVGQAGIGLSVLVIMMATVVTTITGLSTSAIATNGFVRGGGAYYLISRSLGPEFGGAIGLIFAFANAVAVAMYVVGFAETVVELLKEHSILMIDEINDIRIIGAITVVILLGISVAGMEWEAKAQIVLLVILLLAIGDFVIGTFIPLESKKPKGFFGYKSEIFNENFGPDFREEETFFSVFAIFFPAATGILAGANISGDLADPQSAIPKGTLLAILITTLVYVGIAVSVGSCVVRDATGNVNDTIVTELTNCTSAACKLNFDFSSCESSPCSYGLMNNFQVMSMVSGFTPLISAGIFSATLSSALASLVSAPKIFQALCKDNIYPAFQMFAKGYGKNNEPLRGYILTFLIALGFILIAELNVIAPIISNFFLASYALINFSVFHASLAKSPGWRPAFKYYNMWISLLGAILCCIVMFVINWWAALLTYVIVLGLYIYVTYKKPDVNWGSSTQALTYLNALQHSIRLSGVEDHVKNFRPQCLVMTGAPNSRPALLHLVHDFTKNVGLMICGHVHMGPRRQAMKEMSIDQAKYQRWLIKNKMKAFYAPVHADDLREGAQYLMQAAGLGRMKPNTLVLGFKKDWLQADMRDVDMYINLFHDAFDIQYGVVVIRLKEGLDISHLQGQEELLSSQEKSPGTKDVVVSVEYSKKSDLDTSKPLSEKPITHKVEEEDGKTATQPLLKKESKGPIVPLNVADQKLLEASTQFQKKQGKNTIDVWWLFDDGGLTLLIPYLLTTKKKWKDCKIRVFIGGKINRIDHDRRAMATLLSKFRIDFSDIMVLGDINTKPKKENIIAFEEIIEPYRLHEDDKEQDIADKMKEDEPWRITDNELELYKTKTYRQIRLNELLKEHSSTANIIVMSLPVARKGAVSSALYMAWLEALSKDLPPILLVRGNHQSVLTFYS
Protocol: (§1) FLIPR TI Flux assay. HEK-293 cells were washed with HBSS, and then incubated with loading buffer containing TI sensitive fluorescent dye (https://www.moleculardevices.com), 20 μM bumetanide 20 μM ouabain and 2.5 mM probenecid for 1 h at room temperature (RT) under control conditions or with drugs in the dark using a FlexStation 3 microplate reader (Molecular Devices) and imaged […] for 30 min. Stimulus buffer was added containing 5 mM K^+/0.5 mM Tl^+ and cells were imaged every 1.5 over a 190 second time course The initial rate Tl^+ uptake (Relative Fluorescence Units (RFU) per second) was determined following addition of the stimulus buffer as outlined previously (Conway et al., 2017, supra) (Lee et al., 2022, supra).
(§2) Several studies have shown that the activity and plasma membrane accumulation of KCC2 is potentiated via phosphorylation of S940, a process mediated by the activity of protein kinase C and protein phosphatase 1 (Lee et al., 2011, supra; Lee et al., J Biol Chem 282, 29777-29784 (2007); Moore et al., Proc. Natl. Acad. Sci. U.S.A 115, 10166-10171 (2018); Moore et al., Trends Neurosci. 40, 555-571 (2017); Silayeva et al., Proc. Natl. Acad. Sci. U.S.A 112, 3523-3528 (2015)). […] Compared to KCC2, effects on KCC3, KCC4, and NKCC1 were only seen at concentrations more than 35-fold that of KCC2 (≥100 μM) (FIG. 1G).

KCC4 = target: T2, KCC4 (Homo sapiens, UniProt Q9Y666); assay: Tl+ flux assay in HEK-293 cells expressing KCC4; type: cell-based; settings: read-out: concentration at which effects on KCC4 were seen (EC50 chart, FIG. 1G)
T2 construct: expressed in transfected cells; host or cells: HEK-293
T2 sequence (Q9Y666 1-1083): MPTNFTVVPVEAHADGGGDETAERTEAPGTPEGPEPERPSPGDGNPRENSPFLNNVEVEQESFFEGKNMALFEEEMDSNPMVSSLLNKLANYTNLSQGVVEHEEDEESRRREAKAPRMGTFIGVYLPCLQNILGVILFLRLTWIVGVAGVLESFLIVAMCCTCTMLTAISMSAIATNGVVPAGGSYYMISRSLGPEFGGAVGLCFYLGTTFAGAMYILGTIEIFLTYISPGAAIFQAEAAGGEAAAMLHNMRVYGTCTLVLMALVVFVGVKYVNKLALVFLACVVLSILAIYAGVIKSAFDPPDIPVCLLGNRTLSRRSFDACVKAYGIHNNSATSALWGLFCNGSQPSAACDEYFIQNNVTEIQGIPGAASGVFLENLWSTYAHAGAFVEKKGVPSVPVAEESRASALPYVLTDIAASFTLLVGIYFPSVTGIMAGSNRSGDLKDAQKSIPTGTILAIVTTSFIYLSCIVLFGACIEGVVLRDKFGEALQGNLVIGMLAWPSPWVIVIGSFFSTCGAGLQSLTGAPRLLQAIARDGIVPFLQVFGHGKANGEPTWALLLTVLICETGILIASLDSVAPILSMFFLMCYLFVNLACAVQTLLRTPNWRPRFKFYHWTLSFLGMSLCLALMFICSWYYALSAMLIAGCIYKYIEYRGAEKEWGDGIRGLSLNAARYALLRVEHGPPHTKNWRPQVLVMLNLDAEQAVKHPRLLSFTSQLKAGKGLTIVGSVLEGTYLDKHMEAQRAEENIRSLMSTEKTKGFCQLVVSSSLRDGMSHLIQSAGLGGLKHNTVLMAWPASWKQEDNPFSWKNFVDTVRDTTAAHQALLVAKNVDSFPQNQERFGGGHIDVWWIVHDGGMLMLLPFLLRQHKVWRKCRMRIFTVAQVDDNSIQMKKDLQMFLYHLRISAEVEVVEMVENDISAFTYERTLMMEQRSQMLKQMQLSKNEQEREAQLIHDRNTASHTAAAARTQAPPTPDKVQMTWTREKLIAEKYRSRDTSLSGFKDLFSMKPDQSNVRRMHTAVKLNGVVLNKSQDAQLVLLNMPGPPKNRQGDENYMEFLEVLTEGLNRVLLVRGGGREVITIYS
Protocol: as §1, §2

Compound: C[C@@H]1CN(c2nc3c(c(Nc4ccc(C5CCCCC5)cc4)n2)COC3)CCO1 [Compound A, (R)—N-(4-cyclohexylphenyl)-2-(2-methylmorpholino)-5,7-dihydrofuro[3,4-d]pyrimidin-4-amine]
- gross effects on mouse behavior [1]: no gross effects
- total distance traveled in open field ([1]; mouse, sc, 50 mg/kg): 6134.2±235.3 cm
- pEC50 (NKCC1): ≤ 4.00
- pEC50 (KCC4): ≤ 4.00
